Source: patent EP1984014B1, “USE OF TPO PEPTIDE COMPOUNDS AND PHARMACEUTICAL COMPOSITIONS IN THE TREATMENT OF ANEMIA” (Janssen Pharmaceutica NV, priority 2006, dated 2007)

Test system: carboplatin-treated mice
Experiment: Example 4: lower doses (30, 100, 300ug/kg) as survival factor for erythrocyte lineages in carboplatin-treated mice
Format: in vivo, BALB/c mouse
Description: The effects of PEGylated TPO Compound No. 1 on mice treated with carboplatin were observed. For all examples herein, a 10 mg/ml stock solution of PEGylated TPO Compound No. 1 was prepared in sterile saline. For mixing, the preparation was placed on a gyratory shaker for 15min. at 200 rpm. This method was used to dissolve PEGylated TPO Compound No. 1 without foaming. The stock was filtered using a GV Millex (0.22um) filter. Dosing solutions were then prepared from this stock using sterile saline. The stock and dosing solutions were prepared fresh on the day of use.
The ability of PEGylated TPO Compound No. 1 to function as a survival factor for megakaryocyte and erythrocyte lineages in carboplatin-treated mice as determined by changes in hematological parameters was observed. […] In this study, the effect of lower doses of PEGylated TPO Compound No. 1 (i.e., 30, 100 and 300ug/kg) on the survival of erythrocyte lineages was examined to characterize the dose-response for this effect.
The groups of mice were treated with either carboplatin or vehicle (Phosphate Buffered Saline, PBS) by ip administration on Days -1 and 0 as delineated below. The optimal dose of carboplatin used to induce thrombocytopenia in the BALB/c mouse strain was previously determined to be a fractionated total dose of 120mg/kg given as two consecutive daily injections (i.e., 2x60mg/kg). Approximately one hour following the second dose of carboplatin, groups of mice were treated with PEGylated TPO Compound No. 1 or vehicle (sterile saline, SS, preservative-free 0.9% sodium chloride) by IV (bolus) injection as delineated in Table 4. The dose was administered on a per-weight basis (100ul/10g body weight).
On Days 6, 8 and 12, five mice in each test group were weighed and then euthanised using CO2-asphyxiation and exsanguinations via cardiac puncture. The blood samples were transferred to separate EDTA (lavender-top) microcontainers for hematologic evaluation. Groups of control mice (5) were processed on Days 6 & 12.

Methoxypolyethyleneglycol20000-propionyl-L-Isoleucyl-L-Glutamyl-Glycyl-L-Prolyl-L-Threonyl-L-Leucyl-L-Arginyl-L-Glutaminyl-L-2-Naphthylalanyl-L-Leucyl-L-Alanyl-L-Alanyl-L-Arginyl-Sarcosyl-Ne-(methoxypolyethyleneglycol20000-propionyl-L-Isoleucyl-L-Glutamyl-Glycyl-L-Prolyl-L-Threonyl-L-Leucyl-L-Arginyl-L-Glutaminyl-L-2-Naphthylalanyl-L-Leucyl-L-Alanyl-L-Alanyl-L-Arginyl-Sarcosyl-)-Lysinamide [PEGylated TPO Compound No. 1]
weight loss or recovery (13-Day study period): did not appear to affect weight loss or recovery | decreases in RBC counts and hematocrit induced by carboplatin treatment (30, 100, 300ug/kg iv Day 0): effectively inhibited | decrease in hemoglobin levels caused by carboplatin (all doses (30, 100, 300ug/kg iv Day 0, about 1 h after carboplatin), by Day 12): totally inhibited | anemia induced by carboplatin (all doses, on Day 12): completely prevent | altered appearance and behavior (hunched, unkempt, soft stool) (appeared to be dose-dependent): decreased the onset, frequency and severity of these signs
